Earlier results, collected in patent US20150173349A1, “Agroformulation comprising copolymer of an amide, polyalkylene glycol (meth)acrylate, and alkyl (meth)acrylate” (BASF SE, priority 2012, published 2015).
Converted amounts (≈) assume the structure as drawn.

Conditions: 20° C.

Structure (SMILES): Cn1cc(C(=O)Nc2ccccc2-c2cc(F)c(F)c(F)c2)c(C(F)F)n1 [fluxapyroxad]
- solubility in water: 3.88 µg/mL (≈ 10.2 µM)
